Source: US8088918B2, “Noncardiotoxic pharmaceutical compounds” (Williamsburg Holdings LLC, priority 2004, dated 2012)

Tests used:
[1] = human plasma; cited from earlier work
[2] = parent drugs; cited from earlier work
[3] = healthy volunteers, therapeutic plasma concentrations; cited from earlier work
[4] = oral administration; cited from earlier work
[5] = preclinical and clinical studies; cited from earlier work
CYP2D6 [6] = target: T1, CYP2D6 (Homo sapiens, UniProt P10635); details: cited from earlier work
[7] = Stability testing in simulated gastric fluids; details: 10 μM, saline pH approximately 1 plus pepsin
[8] = Stability testing in simulated intestinal fluids; details: 10 μM
[9] = Metabolic stability, microsomal incubations with ketoconazole (CYP3A4 inhibitor); assay type: in vitro ADME; details: 10 μM, 0.5 mg/mL microsomal protein
Description: (§1) The metabolic stability of each compound prepared in Examples 1-5 was assessed in microsomal preparations obtained from BD Gentest (Woburn, Mass.).
(§2) The metabolic stability of each compound prepared in Examples 1-5 was assessed in duplicate by incubation of 10 μM compound with 0.5 mg/mL microsomal protein, 1 mM in 0.1 M phosphate buffer, pH 7.4 in the presence and absence of a CYP3A4 inhibitor (ketoconazole). The reaction mixture was pre-incubated, in the absence of the microsomes, at ca. 37° C. for 5 minutes, followed by initiation of the incubation by the addition of microsomal protein and maintained at ca. 37° C. for a further 0, 30 and 60 minutes. After the appropriate incubation time, the mixtures were quenched by the addition of one volume of acetonitrile and the supernatant was isolated by centrifugation. Positive control incubations (7-ethoxycoumarin) were performed in the same manner as the compounds from Examples 1-5 and quenched after 0 and 30 minutes. In addition, negative control incubations were performed for 60 minutes in the absence of NADPH to assess chemical stability.
(§3) Analysis of supernatants from each time interval was conducted for each compound prepared in Examples 1-5 by LC-MS analysis. Quantification of the disappearance on the parent drug was achieved by comparison of the sample response to that of a suitable standard curve constructed in 0.1 M phosphate buffer, pH 7.4. The standard curve ranged between ≦1% up to ≧100% of the dosing concentration.
(§4) The % turnover following 60 minutes of incubation was calculated by comparison of the parent concentration to that at 0 minutes. The % degradation was calculated in the same manner from the negative control incubations. Appearance of the parent drug and the hydroxymetabolites were also monitored at each time interval.

[10] = Metabolic stability, microsomal incubations without inhibitor; assay type: in vitro ADME; details: 10 μM, 0.5 mg/mL microsomal protein
Description: as §1, §2, §3, §4

CYP2D6 [11] = target: T1, CYP2D6; assay: Metabolic stability in the presence of CYP2D6 isozyme; assay type: in vitro ADME; parameters: purchased BD Gentest (Woburn, Mass.); details: 10 μm compound
Description: (§5) The metabolic stability of each compound prepared in Examples 1-5 was assessed in the presence of CYP2D6 and CYP3A4 obtained from BD Gentest (Woburn, Mass.).
(§6) The metabolic stability of each compound prepared in Examples 1-5 was assessed in duplicate by incubation of 10 μm compound with recombinant human CYP2D6 and 3A4 using similar conditions to those in Example 9. Samples were removed for analysis at 0, 30 and 60 minutes and extracted with one volume of organic solvent. Appropriate controls were included. Quantification of the disappearance of the prodrug was conducted LC-MS. Appearance of metabolites was also monitored.

[12] = Stability testing of prodrugs in human plasma; assay type: in vitro ADME; details: 10 μM, ca. 37° C.
Description: Pooled human plasma was obtained from Bioreclamation (East Meadow, N.Y.) by collection into sodium EDTA as the anticoagulant, and was stored at ca −20° C. prior to use. Prior to use, the plasma defrosted and was spun at ca. 3000 rpm for 5 minutes to remove any precipitate. The pH of the plasma was adjusted to pH 7.4 by careful addition of NaH2PO4 buffer.
Plasma stability was assessed by incubation of 10 μM of each compound prepared in Examples 1-5 with human plasma, in duplicate, at ca. 37° C. with shaking. Each compound prepared in Examples 1-5 was also incubated at 10 μM in PBS as a control for compound heat stability. Aliquots were removed at 0, 0.5, 1 and 2 hours and stored at −20° C. until analysis.
For analysis, plasma samples were extracted in 1 part acetonitrile and isolation of the supernatant. Analysis of each compound prepared in Examples 1-5 in plasma extracts was conducted by an LC-MS method at each time interval and quantification was achieved by comparison of the response due to the sample to that of a three point standard curve. Appearance of the parent drug the hydroxymetabolites were also monitored at each time interval. The % degradation following incubation at each time point was calculated by comparison of the parent concentration to that at 0 minutes.

recombinant human CYP3A4 = target: T2, recombinant human CYP3A4 (Homo sapiens, UniProt P08684); assay: Metabolic stability in the presence of CYP3A4 isozyme; assay type: in vitro ADME; details: 10 μm compound
T2 construct: purchased BD Gentest (Woburn, Mass.)
Description: as §5, §6

[13] = Stability testing of prodrugs in rat plasma (elevated esterase activity); assay type: in vitro ADME, Sprague-Dawley rat; details: 10 μM, ca. 37° C.
Description: Sprague-Dawley rat plasma was obtained by collection into sodium EDTA as the anticoagulant, and was stored at ca −20° C. prior to use. Prior to use, the plasma defrosted and was spun at ca. 3000 rpm for 5 minutes to remove any precipitate. The pH of the plasma was adjusted to pH 7.4 by careful addition of NaH2PO4 buffer.
Plasma stability was assessed by incubation of 10 μM of each compound prepared in Examples 1-5 with rat plasma, in duplicate, at ca. 37° C. with shaking. Each compound prepared in Examples 1-5 was also incubated at 10 μM in PBS as a control for compound heat stability. Aliquots were removed at 0, 0.5, 1 and 2 hours and stored at −20° C. until analysis.
For analysis, plasma samples were extracted in 1 part acetonitrile and isolation of the supernatant. Analysis of each compound prepared in Examples 1-5 in plasma extracts was conducted by an LC-MS method at each time interval and quantification was achieved by comparison of the response due to the sample to that of a three point standard curve. Appearance of the parent drug and the hydroxymetabolites were also monitored at each time interval. The % degradation following incubation at each time point was calculated by comparison of the parent concentration to that at 0 minutes.

T2 sequence (P08684 whole entry): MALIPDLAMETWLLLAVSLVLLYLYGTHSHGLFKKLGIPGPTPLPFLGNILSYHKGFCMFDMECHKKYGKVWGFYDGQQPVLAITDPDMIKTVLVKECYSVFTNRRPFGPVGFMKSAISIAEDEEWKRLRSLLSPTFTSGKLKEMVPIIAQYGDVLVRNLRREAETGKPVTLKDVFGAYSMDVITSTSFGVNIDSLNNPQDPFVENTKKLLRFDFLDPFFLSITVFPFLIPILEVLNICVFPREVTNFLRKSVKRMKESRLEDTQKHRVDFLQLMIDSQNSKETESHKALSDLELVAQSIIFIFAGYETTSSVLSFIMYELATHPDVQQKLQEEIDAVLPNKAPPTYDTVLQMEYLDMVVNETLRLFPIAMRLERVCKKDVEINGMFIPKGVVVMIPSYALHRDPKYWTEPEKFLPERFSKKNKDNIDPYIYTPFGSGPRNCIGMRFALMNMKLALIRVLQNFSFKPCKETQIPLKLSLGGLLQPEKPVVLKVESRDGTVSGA
T1 sequence (P10635 whole entry): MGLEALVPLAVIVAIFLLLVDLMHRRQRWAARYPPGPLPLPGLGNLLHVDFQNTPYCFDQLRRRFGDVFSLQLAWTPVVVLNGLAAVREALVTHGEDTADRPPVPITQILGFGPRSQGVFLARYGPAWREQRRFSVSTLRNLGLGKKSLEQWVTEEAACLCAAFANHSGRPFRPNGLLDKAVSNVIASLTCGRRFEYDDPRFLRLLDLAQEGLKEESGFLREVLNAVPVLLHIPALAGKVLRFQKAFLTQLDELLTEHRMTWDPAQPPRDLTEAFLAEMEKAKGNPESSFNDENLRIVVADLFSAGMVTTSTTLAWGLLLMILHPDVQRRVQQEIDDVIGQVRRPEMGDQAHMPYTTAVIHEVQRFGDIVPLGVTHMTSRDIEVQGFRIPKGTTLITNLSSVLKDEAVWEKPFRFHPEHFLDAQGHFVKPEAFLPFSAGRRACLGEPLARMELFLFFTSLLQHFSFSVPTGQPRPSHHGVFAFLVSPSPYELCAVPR

In the case of `Fc1ccc([C@@H]2CCNC[C@H]2COc2ccc3c(c2)OCO3)cc1` [paroxetine], the AUC(0-24) [1] is given as 96.5 ng·h/mL, the Cmax [1] is given as 8.60 ng/mL and the Tmax [1] is given as 5 (3-5) hours. For the same molecule, the pKa [2] was 9.90.

For `CC(CC(c1ccccc1)c1ccccc1)NC(C)(C)C` (stereo not shown) [terodiline], the “increase in mean QTc” value [3] is given as 23 ms.

In the case of `C[N+](C)([O-])CCCN1c2ccccc2CCc2ccccc21` [imipramine-N-oxide, Imipramine-N-oxide], the systemic availability [4] is given as “about 100%”, the “cardiotoxicity compared with imipramine” value [5] is given as “significantly reduced” and the “metabolism by CYP2D6 to the hydroxymetabolite” value (CYP2D6 [6]) is given as “abolished the metabolism of imipramine by CYP2D6 to the hydroxymetabolite”.

In the case of `COC(=O)N(C)CCCN1c2ccccc2CCc2ccccc21` [RIC-5a, [3-(10,11-Dihydro-dibenzo[b,f]azepin-5-yl)-propyl]-methyl-carbamic acid methyl ester], the “Loss of parent compound in simulated gastric fluid (%)” value (“Loss … in simulated gastric fluid (%)” for short) ([7]; incubation time 0 min) is reported as 0.00%, the “Loss … in simulated gastric fluid (%)” value ([7]; incubation time 30 min) is reported as 13.93% and the “Loss … in simulated gastric fluid (%)” value ([7]; incubation time 60 min) is reported as 31.78%. For the same molecule, the “Loss … in simulated gastric fluid (%)” value ([7]; incubation time 120 min) was 81.43%, the “Loss of parent compound in simulated intestinal fluid (%)” value ([8]; phosphate pH 6, incubation time 0 min) was 0.00% and the “Loss of parent compound in simulated intestinal fluid (%)” value ([8]; phosphate pH 6, incubation time 30 min) was 16.75%. The “Loss of parent compound in simulated intestinal fluid (%)” value ([8]; phosphate pH 6, incubation time 60 min) was 22.88%, the “Loss of parent compound in simulated intestinal fluid (%)” value ([8]; phosphate pH 6, incubation time 120 min) was 35.18% and the “Loss of parent compound with ketoconazole (%)” value ([9]; incubation time 30 min) was 27.65%. For the same molecule, the “Loss of parent compound with ketoconazole (%)” value ([9]; incubation time 60 min) was 62.37%, the “Loss of parent compound with no ketoconazole (%)” value ([10]; incubation time 30 min) was 70.94% and the “Loss of parent compound with no ketoconazole (%)” value ([10]; incubation time 60 min) was 87.25%. For the same molecule, the “Loss of parent compound with CYP2D6 isozyme (%)” value (from here on “Loss … with CYP2D6 isozyme (%)”) (CYP2D6 [11]; incubation time 0 min) was 0.00%, the “Loss … with CYP2D6 isozyme (%)” value (CYP2D6 [11]; incubation time 30 min) was 73.91% and the “Loss … with CYP2D6 isozyme (%)” value (CYP2D6 [11]; incubation time 60 min) was 83.13%. The “Loss of parent compound in human plasma (%)” value (“Loss … in human plasma (%)” for short) ([12]; incubation time 0 min) was 0.00%, the “Loss … in human plasma (%)” value ([12]; incubation time 30 min) was 5.47% and the “Loss … in human plasma (%)” value ([12]; incubation time 60 min) was 15.80%. For the same molecule, the “Loss … in human plasma (%)” value ([12]; incubation time 120 min) was 26.22%, the “Loss of parent compound with CYP3A4 isozyme (%)” value (shortened to “Loss … with CYP3A4 isozyme (%)”) (recombinant human CYP3A4; incubation time 0 min) was 0.00% and the “Loss … with CYP3A4 isozyme (%)” value (recombinant human CYP3A4; incubation time 30 min) was 91.32%. For the same molecule, the “Loss … with CYP3A4 isozyme (%)” value (recombinant human CYP3A4; incubation time 60 min) was 97.96%, the “Loss of parent compound in rat plasma (%)” value (from here on “Loss … in rat plasma (%)”) ([13]; incubation time 0 min) was 0.00% and the “Loss … in rat plasma (%)” value ([13]; incubation time 30 min) was 8.81%. For the same molecule, the “Loss … in rat plasma (%)” value ([13]; incubation time 60 min) was 23.43% and the “Loss … in rat plasma (%)” value ([13]; incubation time 120 min) was 45.85%.
